Calls of active or inactive are those of the source. No cut-off for these calls is given here.
Key:
[1] = target: Coronin-1A (Homo sapiens) (UniProt P31146); experiment: Binding affinity to coronin-1A in human MDA-MB-453 cells measured after 6 hrs by pull-down assay; format: cell-based; conditions: dose <= 20.0 µM, DDE = dose-dependent effect
[2] = target: Tubulin alpha (Homo sapiens) (UniProt P0DPH7+P68366+Q71U36+P68363+Q9BQE3+Q6PEY2+A6NHL2+Q9NY65); experiment: Binding affinity to alpha-tubulin in human DOHH-2 cells measured after 6 hrs by pull-down assay; format: cell-based; conditions: DDE = dose-dependent effect
Homo sapiens [3] = organism: Homo sapiens; experiment: Binding affinity to ADP-bound full-length human HSP70 assessed as Cys603 adduct formation at SBDalpha domain by LC-MS/MS analysis
DOHH-2 [4] = experiment: Induction of apoptosis in human DOHH-2 cells assessed as increase in cleaved PARP expression at 8 uM measured after 4 to 24 hrs by Western blot analysis; format: functional, cell-based; conditions: time 4-24 hrs
[5] = target: Tubulin beta (Homo sapiens) (UniProt P68371+Q9H4B7+Q13509+P04350+Q3ZCM7+P07437+Q13885+Q9BVA1+Q9BUF5+A6NNZ2); experiment: Binding affinity to beta-tubulin in human DOHH-2 cells by MS analysis; format: cell-based
DOHH-2 [6] = experiment: Up regulation of HSP70 expression in human DOHH-2 cells at 0.5 to 8 uM measured after 24 hrs by Western blot analysis; format: functional, cell-based; conditions: dose 0.5-8 µM
DOHH-2 [7] = experiment: Cytotoxicity against human DOHH-2 cells up to 20 uM measured after 24 hrs; format: functional, cell-based
[8] = target: T1, Peroxiredoxin-2 (Homo sapiens) (UniProt P32119); experiment: Binding affinity to PRDX2 in human DOHH-2 cells measured after 6 hrs by pull-down assay; format: cell-based; conditions: DDE = dose-dependent effect
T1 sequence (whole entry): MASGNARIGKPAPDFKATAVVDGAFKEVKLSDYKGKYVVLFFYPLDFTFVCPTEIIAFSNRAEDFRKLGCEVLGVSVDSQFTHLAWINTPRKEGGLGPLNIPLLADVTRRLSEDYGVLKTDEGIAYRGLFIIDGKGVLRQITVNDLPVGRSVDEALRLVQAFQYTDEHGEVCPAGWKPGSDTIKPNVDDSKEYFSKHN

[9] = target: T2, Protein disulfide-isomerase A3 (Homo sapiens) (UniProt P30101); experiment: Binding affinity to PDIA3 in human DOHH-2 cells by MS analysis; format: cell-based
T2 sequence (whole entry): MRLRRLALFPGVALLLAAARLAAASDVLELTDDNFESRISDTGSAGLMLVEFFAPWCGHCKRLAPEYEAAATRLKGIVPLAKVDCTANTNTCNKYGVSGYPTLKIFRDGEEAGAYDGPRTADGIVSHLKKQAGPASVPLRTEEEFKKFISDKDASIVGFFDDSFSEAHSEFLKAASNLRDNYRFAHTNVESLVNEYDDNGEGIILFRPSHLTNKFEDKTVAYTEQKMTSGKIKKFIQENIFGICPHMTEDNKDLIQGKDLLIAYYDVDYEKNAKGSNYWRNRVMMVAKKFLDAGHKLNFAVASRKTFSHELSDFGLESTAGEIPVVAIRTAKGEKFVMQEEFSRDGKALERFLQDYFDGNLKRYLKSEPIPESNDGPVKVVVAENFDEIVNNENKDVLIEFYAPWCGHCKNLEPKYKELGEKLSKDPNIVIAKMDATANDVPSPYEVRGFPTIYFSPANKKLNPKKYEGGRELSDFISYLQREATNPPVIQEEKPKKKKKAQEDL

Homo sapiens [10] = organism: Homo sapiens; experiment: Binding affinity to human HSP70 SBDalpha domain (537 to 610 residues) C574S mutant assessed as Cys603 adduct formation by size exclusion chromatography
[11] = target: Glutathione S-transferase 3, mitochondrial (Homo sapiens) (UniProt O14880); experiment: Binding affinity to MGST3 in human DOHH-2 cells measured after 6 hrs by pull-down assay; format: cell-based; conditions: DDE = dose-dependent effect
[12] = target: Glutathione S-transferase 3, mitochondrial (Homo sapiens) (UniProt O14880); experiment: Binding affinity to MGST3 in human DOHH-2 cells by MS analysis; format: cell-based
[13] = target: T3, Protein disulfide-isomerase A4 (Homo sapiens) (UniProt P13667); experiment: Binding affinity to PDIA4 in human DOHH-2 cells measured after 6 hrs by pull-down assay; format: cell-based; conditions: DDE = dose-dependent effect
T3 sequence (whole entry): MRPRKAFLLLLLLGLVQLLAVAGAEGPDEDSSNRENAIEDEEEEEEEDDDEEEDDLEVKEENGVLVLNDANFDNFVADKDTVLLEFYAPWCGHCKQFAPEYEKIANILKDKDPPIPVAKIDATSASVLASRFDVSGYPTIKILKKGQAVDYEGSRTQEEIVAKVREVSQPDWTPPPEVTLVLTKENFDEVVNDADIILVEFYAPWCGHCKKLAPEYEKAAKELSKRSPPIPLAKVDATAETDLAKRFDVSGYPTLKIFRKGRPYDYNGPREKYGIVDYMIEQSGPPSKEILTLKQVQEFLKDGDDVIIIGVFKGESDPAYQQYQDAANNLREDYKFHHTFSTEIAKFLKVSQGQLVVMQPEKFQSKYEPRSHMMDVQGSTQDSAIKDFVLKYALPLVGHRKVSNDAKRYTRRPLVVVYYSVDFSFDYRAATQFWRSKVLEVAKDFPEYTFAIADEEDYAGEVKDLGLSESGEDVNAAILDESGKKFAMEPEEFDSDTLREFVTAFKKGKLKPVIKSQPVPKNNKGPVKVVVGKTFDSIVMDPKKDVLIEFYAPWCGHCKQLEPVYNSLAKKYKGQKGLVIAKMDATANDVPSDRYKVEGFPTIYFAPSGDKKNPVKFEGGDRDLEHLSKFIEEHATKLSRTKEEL

[14] = GSH reactivity in pH 7.4 buffer assessed as GSH adduct formation by measuring molecular weight at 1 mM by Q-TOF LC/MS analysis; format: physicochemical; conditions: pH 7.4, 1000 µM
[15] = target: T4, Protein disulfide-isomerase A6 (Homo sapiens) (UniProt Q15084); experiment: Binding affinity to PDIA6 in human MDA-MB-453 cells measured after 6 hrs by pull-down assay; format: cell-based; conditions: dose <= 20.0 µM, DDE = dose-dependent effect
T4 sequence (whole entry): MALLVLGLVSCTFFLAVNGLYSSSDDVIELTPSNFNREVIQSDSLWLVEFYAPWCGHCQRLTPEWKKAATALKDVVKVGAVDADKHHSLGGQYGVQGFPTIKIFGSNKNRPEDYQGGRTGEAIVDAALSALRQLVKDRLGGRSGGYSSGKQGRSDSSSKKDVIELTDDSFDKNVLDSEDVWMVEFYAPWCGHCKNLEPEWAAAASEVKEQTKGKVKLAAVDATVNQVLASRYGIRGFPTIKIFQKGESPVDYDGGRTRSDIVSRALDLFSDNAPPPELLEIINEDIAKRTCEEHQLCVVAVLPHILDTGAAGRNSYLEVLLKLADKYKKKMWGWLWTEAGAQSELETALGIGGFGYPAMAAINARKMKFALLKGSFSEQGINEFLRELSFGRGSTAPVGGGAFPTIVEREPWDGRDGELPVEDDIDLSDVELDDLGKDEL

DOHH-2 [16] = experiment: Induction of autophagy in human DOHH-2 cells assessed as reduction in p62 expression at 0.5 to 8 uM measured after 24 hrs by Western blot analysis; format: functional, cell-based; conditions: dose 0.5-8 µM
Homo sapiens [17] = organism: Homo sapiens; experiment: Binding affinity to ADP-bound full-length human HSP70 assessed as Cys603 adduct formation by size exclusion chromatography

Sequence of Glutathione S-transferase 3, mitochondrial (Homo sapiens) (O14880 whole entry): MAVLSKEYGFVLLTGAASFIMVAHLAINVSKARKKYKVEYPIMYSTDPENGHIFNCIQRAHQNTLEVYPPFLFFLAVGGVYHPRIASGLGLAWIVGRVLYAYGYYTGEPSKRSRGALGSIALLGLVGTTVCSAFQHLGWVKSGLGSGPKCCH
Sequence of Coronin-1A (Homo sapiens) (P31146 whole entry): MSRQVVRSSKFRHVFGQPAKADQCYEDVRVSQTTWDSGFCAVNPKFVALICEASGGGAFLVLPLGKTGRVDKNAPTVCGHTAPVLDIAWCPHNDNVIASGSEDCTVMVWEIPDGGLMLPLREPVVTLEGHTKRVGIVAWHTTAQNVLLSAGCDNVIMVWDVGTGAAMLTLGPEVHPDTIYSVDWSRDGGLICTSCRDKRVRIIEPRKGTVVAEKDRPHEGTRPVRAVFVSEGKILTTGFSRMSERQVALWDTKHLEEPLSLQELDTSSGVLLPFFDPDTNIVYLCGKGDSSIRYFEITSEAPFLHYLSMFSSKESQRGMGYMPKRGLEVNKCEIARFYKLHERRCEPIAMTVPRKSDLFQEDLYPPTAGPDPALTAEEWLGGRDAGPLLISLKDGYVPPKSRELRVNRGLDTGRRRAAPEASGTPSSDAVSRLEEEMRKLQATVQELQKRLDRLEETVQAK

C#Cc1cccc(C#CS(N)(=O)=O)c1
Activity [1]: Dde
Activity [2]: Dde
Activity (Homo sapiens [3]): Active
Activity (DOHH-2 [4]): Active
Activity [5]: Active
Activity (DOHH-2 [6]): Active
Activity (DOHH-2 [7]): Active
Activity [8]: Dde
Activity [9]: Active
Activity (Homo sapiens [10]): Active
Activity [11]: Dde
Activity [12]: Active
Activity [13]: Dde
Activity [14]: 513 Da
Activity [15]: Dde
Activity (DOHH-2 [16]): Active
Activity (Homo sapiens [17]): Active
